Measurements reported in patent US12662465B2, “EGFR inhibitors” (Blueprint Medicines Corporation, priority 2021, dated 2026).

Tests used:
[1] = target: intracellular phosphorylation of EGFR (Tyr1068) in PC-9 cells (Ex19Del) (Homo sapiens, UniProt P00533, DEL746-750); assay: PC-9 pEGFR AlphaLISA assay; assay type: cell-based; details: 4 hours compound incubation, read-out: Ext pEGFR_PC-9 Ex19Del IC50
EGFR (d746-750) = target: T1, EGFR (d746-750) (Homo sapiens, UniProt P00533, DEL746-750); assay: Biochemical EGFR inhibition assay (Caliper mobility shift), EGFR (d746-750); details: read-out: Enz EGFR_Exon19-del746-750 IC50
T1 construct: purchased SignalChem E10-122JG

EGFR L858R = target: T2, EGFR L858R (Homo sapiens, UniProt P00533, L858R); assay: Biochemical EGFR inhibition assay (Caliper mobility shift), EGFR L858R; details: read-out: Enz EGFR_L858R IC50
T2 construct: purchased SignalChem E10-122BG
T2 sequence (P00533 25-1210 L858R): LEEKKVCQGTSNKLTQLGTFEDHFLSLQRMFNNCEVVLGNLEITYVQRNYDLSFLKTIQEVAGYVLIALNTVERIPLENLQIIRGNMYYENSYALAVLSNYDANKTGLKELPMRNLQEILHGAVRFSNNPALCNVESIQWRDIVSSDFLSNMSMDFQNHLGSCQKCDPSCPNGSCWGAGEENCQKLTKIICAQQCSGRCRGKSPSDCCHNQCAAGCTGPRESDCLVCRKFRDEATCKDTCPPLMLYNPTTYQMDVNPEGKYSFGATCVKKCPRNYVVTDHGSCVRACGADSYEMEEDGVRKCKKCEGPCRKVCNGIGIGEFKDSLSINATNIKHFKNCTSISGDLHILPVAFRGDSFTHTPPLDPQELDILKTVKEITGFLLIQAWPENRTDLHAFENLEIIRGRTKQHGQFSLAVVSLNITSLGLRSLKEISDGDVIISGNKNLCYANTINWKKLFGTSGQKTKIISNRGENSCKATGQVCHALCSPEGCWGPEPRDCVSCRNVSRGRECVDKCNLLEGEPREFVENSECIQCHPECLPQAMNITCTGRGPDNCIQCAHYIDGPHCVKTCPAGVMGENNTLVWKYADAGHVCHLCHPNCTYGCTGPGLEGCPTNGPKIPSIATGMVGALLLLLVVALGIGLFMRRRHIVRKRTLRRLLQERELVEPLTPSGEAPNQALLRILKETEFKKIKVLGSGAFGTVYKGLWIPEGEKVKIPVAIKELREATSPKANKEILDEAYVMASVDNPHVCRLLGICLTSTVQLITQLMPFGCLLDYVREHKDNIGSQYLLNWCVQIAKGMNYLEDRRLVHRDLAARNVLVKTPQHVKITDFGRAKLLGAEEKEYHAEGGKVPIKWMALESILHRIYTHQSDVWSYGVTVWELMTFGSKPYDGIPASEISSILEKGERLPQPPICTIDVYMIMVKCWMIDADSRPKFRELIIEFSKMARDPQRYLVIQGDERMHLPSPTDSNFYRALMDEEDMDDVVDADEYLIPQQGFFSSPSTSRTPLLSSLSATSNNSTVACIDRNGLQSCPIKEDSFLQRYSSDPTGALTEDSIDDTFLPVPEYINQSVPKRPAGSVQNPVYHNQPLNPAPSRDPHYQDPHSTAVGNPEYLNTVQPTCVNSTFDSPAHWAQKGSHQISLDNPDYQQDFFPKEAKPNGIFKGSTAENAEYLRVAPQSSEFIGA

intracellular phosphorylation of EGFR (Tyr1068) in PC-9 cells (Ex19Del), sequence (P00533 with tags, fused parts or gaps DEL746-750): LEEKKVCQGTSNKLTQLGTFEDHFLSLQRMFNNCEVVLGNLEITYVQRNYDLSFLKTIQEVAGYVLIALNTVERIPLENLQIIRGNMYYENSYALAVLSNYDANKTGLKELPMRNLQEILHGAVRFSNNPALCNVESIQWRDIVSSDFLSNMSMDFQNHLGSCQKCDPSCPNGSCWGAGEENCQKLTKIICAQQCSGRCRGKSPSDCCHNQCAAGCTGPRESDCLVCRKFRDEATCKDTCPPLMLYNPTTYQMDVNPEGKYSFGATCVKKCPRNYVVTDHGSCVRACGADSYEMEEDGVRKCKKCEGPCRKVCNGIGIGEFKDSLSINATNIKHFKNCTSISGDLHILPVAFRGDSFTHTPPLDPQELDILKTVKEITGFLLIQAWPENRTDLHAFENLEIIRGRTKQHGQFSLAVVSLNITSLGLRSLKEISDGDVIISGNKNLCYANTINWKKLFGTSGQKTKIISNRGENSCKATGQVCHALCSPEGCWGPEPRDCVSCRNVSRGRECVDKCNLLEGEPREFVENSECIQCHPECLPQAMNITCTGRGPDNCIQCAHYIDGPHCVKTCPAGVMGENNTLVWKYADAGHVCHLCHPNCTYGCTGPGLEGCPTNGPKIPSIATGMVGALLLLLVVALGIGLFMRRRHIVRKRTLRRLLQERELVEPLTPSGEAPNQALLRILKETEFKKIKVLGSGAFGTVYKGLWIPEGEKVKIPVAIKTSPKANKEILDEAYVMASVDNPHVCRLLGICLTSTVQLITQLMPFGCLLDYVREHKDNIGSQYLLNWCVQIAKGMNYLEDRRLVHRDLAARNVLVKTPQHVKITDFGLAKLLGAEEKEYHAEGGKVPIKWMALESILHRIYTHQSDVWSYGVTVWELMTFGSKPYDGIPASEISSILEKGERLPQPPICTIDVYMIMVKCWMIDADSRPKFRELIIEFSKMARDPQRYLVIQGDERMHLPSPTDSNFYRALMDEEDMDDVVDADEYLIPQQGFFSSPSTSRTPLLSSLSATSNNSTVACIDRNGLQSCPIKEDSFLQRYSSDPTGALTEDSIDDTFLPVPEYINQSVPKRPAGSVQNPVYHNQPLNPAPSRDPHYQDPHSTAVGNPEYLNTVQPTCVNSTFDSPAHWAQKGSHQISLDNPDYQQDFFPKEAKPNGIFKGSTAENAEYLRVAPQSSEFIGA
T1 sequence (P00533 with tags, fused parts or gaps DEL746-750 limits assumed): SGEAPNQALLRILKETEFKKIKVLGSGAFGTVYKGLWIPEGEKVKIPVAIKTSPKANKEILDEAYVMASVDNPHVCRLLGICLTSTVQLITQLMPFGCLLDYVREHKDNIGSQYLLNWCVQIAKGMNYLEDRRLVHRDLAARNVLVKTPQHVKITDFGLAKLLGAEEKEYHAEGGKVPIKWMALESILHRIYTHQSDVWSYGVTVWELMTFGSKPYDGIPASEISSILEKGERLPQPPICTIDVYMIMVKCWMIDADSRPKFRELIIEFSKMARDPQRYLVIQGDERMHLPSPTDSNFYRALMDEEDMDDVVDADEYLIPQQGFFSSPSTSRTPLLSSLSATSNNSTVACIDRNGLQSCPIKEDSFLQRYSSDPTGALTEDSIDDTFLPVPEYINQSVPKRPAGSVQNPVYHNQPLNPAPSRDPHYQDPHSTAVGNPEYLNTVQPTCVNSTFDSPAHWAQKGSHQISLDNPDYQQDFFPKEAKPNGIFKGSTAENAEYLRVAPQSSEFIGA

Compound | IC50 [1] [nM] | IC50 (EGFR (d746-750)) [nM] | IC50 (EGFR L858R) [nM]
C[C@H](CN(C)C)Oc1nc(N2CC[C@H](C(C)(C)O)C2)cc2ncnc(Nc3ccc4ncccc4c3F)c12 [Example 75, 2—((S)-1-(5-(((R)-1-(dimethylamino)propan-2-yl)oxy)-4-((5-fluoroquinolin-6-yl)amino)pyrido[4,3-d]pyrimidin-7-yl)pyrrolidin-3-yl)propan-2-ol] | 10.1 to 50 | < 10 | 10.1 to 50
CO[C@@H]1CCN(c2cc3ncnc(Nc4ccc5ncccc5c4F)c3c(O[C@H](C)CN(C)C)n2)C1 [Example 76, 5—(((R)-1-(dimethylamino)propan-2-yl)oxy)-N-(5-fluoroquinolin-6-yl)-7-((R)-3-methoxypyrrolidin-1-yl)pyrido[4,3-d]pyrimidin-4-amine] | ≤ 10 | < 10 | < 10
C[C@@H](Oc1cc(N2CCC(N(C)C)CC2)cc2ncnc(Nc3ccc4ncccc4c3F)c12)C1COC1 [Example 78, (R)-7-(4-(dimethylamino)piperidin-1-yl)-N-(5-fluoroquinolin-6-yl)-5-(1-(oxetan-3-yl)ethoxy)quinazolin-4-amine] | ≤ 10 | < 10 | < 10
C[C@@H](Oc1cc(N2CC[C@@H](N(C)C)C2)cc2ncnc(Nc3ccc4ncccc4c3F)c12)C1COC1 [Example 79, 7—((R)-3-(dimethylamino)pyrrolidin-1-yl)-N-(5-fluoroquinolin-6-yl)-5-((R)-1-(oxetan-3-yl)ethoxy)quinazolin-4-amine] | ≤ 10 | < 10 | < 10
C[C@@H](Oc1cc(N2CC[C@H](N(C)C)C2)cc2ncnc(Nc3ccc4ncccc4c3F)c12)C1COC1 [Example 80, 7—((S)-3-(dimethylamino)pyrrolidin-1-yl)-N-(5-fluoroquinolin-6-yl)-5-((R)-1-(oxetan-3-yl)ethoxy)quinazolin-4-amine] | ≤ 10 | < 10 | < 10
C[C@H](CN(C)C)Oc1cc(N2CCS(=O)(=O)CC2)cc2ncnc(Nc3ccc4ncccc4c3F)c12 [Example 81, (R)-4-(5-((1-(dimethylamino)propan-2-yl)oxy)-4-((5-fluoroquinolin-6-yl)amino)quinazolin-7-yl)thiomorpholine 1,1-dioxide] | > 50.1 | > 50.1 | > 50.1
C[C@H](CN(C)C)Oc1cc(-n2cc(F)cn2)cc2ncnc(Nc3ccc4ncccc4c3F)c12 [Example 82, (R)-5-((1-(dimethylamino)propan-2-yl)oxy)-7-(4-fluoro-1H-pyrazol-1-yl)-N-(5-fluoroquinolin-6-yl)quinazolin-4-amine] | ≤ 10 | < 10 | < 10
Cc1cnn(-c2cc(O[C@H](C)CN(C)C)c3c(Nc4ccc5ncccc5c4F)ncnc3c2)c1 [Example 83, (R)-5-((1-(dimethylamino)propan-2-yl)oxy)-N-(5-fluoroquinolin-6-yl)-7-(4-methyl-1H-pyrazol-1-yl)quinazolin-4-amine] | ≤ 10 | < 10 | < 10
C[C@H](CN(C)C)Oc1cc(N2CC[C@H](C(C)(C)O)C2)cc2ncnc(Nc3c(F)cc4ncccc4c3F)c12 [Example 88, 2—((S)-1-(4-((5,7-difluoroquinolin-6-yl)amino)-5-(((R)-1-(dimethylamino)propan-2-yl)oxy)quinazolin-7-yl)pyrrolidin-3-yl)propan-2-ol] | ≤ 10 | < 10 | < 10
C[C@H](CN(C)C)Oc1cc(N2C3COCC2C3)cc2ncnc(Nc3ccc4ncccc4c3F)c12 [Example 89, 7-(3-oxa-6-azabicyclo[3.1.1]heptan-6-yl)-5-(((R)-1-(dimethylamino)propan-2-yl)oxy)-N-(5-fluoroquinolin-6-yl)quinazolin-4-amine] | > 50.1 | > 50.1 | > 50.1
C[C@H](CN(C)C)Oc1cc(N2CCn3cncc3C2)cc2ncnc(Nc3ccc4ncccc4c3F)c12 [Example 90, (R)-7-(5,6-dihydroimidazo[1,5-a]pyrazin-7(8H)-yl)-5-((1-(dimethylamino)propan-2-yl)oxy)-N-(5-fluoroquinolin-6-yl)quinazolin-4-amine] | ≤ 10 | < 10 | 10.1 to 50
C[C@H](CN(C)C)Oc1cc(N2CCOC3(CC3)C2)cc2ncnc(Nc3ccc4ncccc4c3F)c12 [Example 91, (R)-5-((1-(dimethylamino)propan-2-yl)oxy)-N-(5-fluoroquinolin-6-yl)-7-(4-oxa-7-azaspiro[2.5]octan-7-yl)quinazolin-4-amine] | > 50.1 | 10.1 to 50 | > 50.1
C[C@H](CN(C)C)Oc1cc(N2CCOC[C@@H]2CO)cc2ncnc(Nc3ccc4ncccc4c3F)c12 [Example 92, ((S)-4-(5-(((R)-1-(dimethylamino)propan-2-yl)oxy)-4-((5-fluoroquinolin-6-yl)amino)quinazolin-7-yl)morpholin-3-yl)methanol] | 10.1 to 50 | < 10 | 10.1 to 50
C[C@H](CN(C)C)Oc1cc(N2CC(C)(O)C2)cc2ncnc(Nc3ccc4ncccc4c3F)c12 [Example 93, (R)-1-(5-((1-(dimethylamino)propan-2-yl)oxy)-4-((5-fluoroquinolin-6-yl)amino)quinazolin-7-yl)-3-methylazetidin-3-ol] | 10.1 to 50 | < 10 | 10.1 to 50
C[C@H](CN(C)C)Oc1cc(N2CCC(C)(O)CC2)cc2ncnc(Nc3ccc4ncccc4c3F)c12 [Example 94, (R)-1-(5-((1-(dimethylamino)propan-2-yl)oxy)-4-((5-fluoroquinolin-6-yl)amino)quinazolin-7-yl)-4-methylpiperidin-4-ol] | 10.1 to 50 | < 10 | 10.1 to 50
C[C@H](CN(C)C)Oc1cc(N2CCCS2(=O)=O)cc2ncnc(Nc3ccc4ncccc4c3F)c12 [Example 95, (R)-2-(5-((1-(dimethylamino)propan-2-yl)oxy)-4-((5-fluoroquinolin-6-yl)amino)quinazolin-7-yl)isothiazolidine 1,1-dioxide] | 10.1 to 50 | < 10 | 10.1 to 50
C[C@H](CN(C)C)Oc1cc(N2CCCC2=O)cc2ncnc(Nc3ccc4ncccc4c3F)c12 [Example 96, (R)-1-(5-((1-(dimethylamino)propan-2-yl)oxy)-4-((5-fluoroquinolin-6-yl)amino)quinazolin-7-yl)pyrrolidin-2-one] | ≤ 10 | < 10 | 10.1 to 50
C[C@H](CN(C)C)Oc1cc(N2CC3(CCS3(=O)=O)C2)cc2ncnc(Nc3ccc4ncccc4c3F)c12 [Example 97, (R)-6-(5-((1-(dimethylamino)propan-2-yl)oxy)-4-((5-fluoroquinolin-6-yl)amino)quinazolin-7-yl)-1-thia-6-azaspiro[3.3]heptane 1,1-dioxide] | ≤ 10 | < 10 | < 10
CNC[C@@H](C)Oc1cc(-c2cnn(C)c2)cc2ncnc(Nc3ccc4ncccc4c3F)c12 [Example 100, (R)—N-(5-fluoroquinolin-6-yl)-7-(1-methyl-1H-pyrazol-4-yl)-5-((1-(methylamino)propan-2-yl)oxy)quinazolin-4-amine] | 10.1 to 50 | 10.1 to 50 | 10.1 to 50
